Laboratory results published in the supplement of paper PMC13380429.

Columns and labels:
Conditions in all cases: 72 h
Caco-2 [1] = test: cell viability relative to DMSO; higher = less toxic
Calu-3 [2] = test: as above
HepG2 [3] = test: as above
U2OS [4] = test: as above
Vero E6 [5] = test: as above
Caco-2 [6] = test: relative viability EC50 (midpoint between 100% and the lowest measured viability); higher = less toxic
Calu-3 [7] = test: as above
HepG2 [8] = test: as above
U2OS [9] = test: as above
Vero E6 [10] = test: as above
Caco-2 [11] = test: drug sensitivity score (DSS) for viability; higher = more toxic; extreme values may be limits of the assay
Calu-3 [12] = test: as above
HepG2 [13] = test: as above
U2OS [14] = test: as above
Vero E6 [15] = test: as above

Compound	cell viability (Caco-2 [1]; 1 nM) [%]	cell viability (Caco-2 [1]; 10 nM) [%]	cell viability (Caco-2 [1]; 100 nM) [%]	cell viability (Caco-2 [1]; 1000 nM) [%]	cell viability (Caco-2 [1]; 10000 nM) [%]	cell viability (Calu-3 [2]; 1 nM) [%]	cell viability (Calu-3 [2]; 10 nM) [%]	cell viability (Calu-3 [2]; 100 nM) [%]	cell viability (Calu-3 [2]; 1000 nM) [%]	cell viability (Calu-3 [2]; 10000 nM) [%]	cell viability (HepG2 [3]; 1 nM) [%]	cell viability (HepG2 [3]; 10 nM) [%]	cell viability (HepG2 [3]; 100 nM) [%]	cell viability (HepG2 [3]; 1000 nM) [%]	cell viability (HepG2 [3]; 10000 nM) [%]	cell viability (U2OS [4]; 1 nM) [%]	cell viability (U2OS [4]; 10 nM) [%]	cell viability (U2OS [4]; 100 nM) [%]	cell viability (U2OS [4]; 1000 nM) [%]	cell viability (U2OS [4]; 10000 nM) [%]	cell viability (Vero E6 [5]; 1 nM) [%]	cell viability (Vero E6 [5]; 10 nM) [%]	cell viability (Vero E6 [5]; 100 nM) [%]	cell viability (Vero E6 [5]; 1000 nM) [%]	cell viability (Vero E6 [5]; 10000 nM) [%]	relative viability EC50 (Caco-2 [6]) [µM]	relative viability EC50 (Calu-3 [7]) [µM]	relative viability EC50 (HepG2 [8]) [µM]	relative viability EC50 (U2OS [9]) [µM]	relative viability EC50 (Vero E6 [10]) [µM]	drug sensitivity score (Caco-2 [11])	drug sensitivity score (Calu-3 [12])	drug sensitivity score (HepG2 [13])	drug sensitivity score (U2OS [14])	drug sensitivity score (Vero E6 [15])
O=C1S/C(=C\c2ccc(OCc3cccc(B(O)O)c3)cc2)C(=O)N1Cc1ccc(F)cc1 [HA-130]	93.4	96	97	97.6	92.8	95.2	110	99.6	105	93.7	102	98.7	94.8	101	103	95.6	97.5	94.7	98.7	90.6	95.5	97.2	103	91.9	93.4	> 10	> 10	> 10	> 10	> 10	0	0	0	0	0
CCc1ccc(OCc2ccccc2C(=O)Nc2ccc3nc(C)cc(N)c3c2)cc1 [JTC-801]	97.8	94.5	90.4	91.9	0.6	97.7	102	100	100	0.2	114	95.6	102	89	-0.1	96	99.2	96.6	97.8	-0.1	101	99.7	102	94.1	-0.1	2.49	3.18	2.25	3	2.69	6.8	5.6	7.4	5.9	6.4
O=C(OC(C(F)(F)F)C(F)(F)F)N1CCC(C(O)(c2ccc3c(c2)OCO3)c2ccc3c(c2)OCO3)CC1 [KML29]	94.6	99.6	117	97	106	109	105	98	108	92.6	96.7	96.1	94.1	106	98.8	103	99.8	101	95.5	95.5	94	96.2	97.8	98.3	91.7	> 10	> 10	> 10	> 10	> 10	0	0	0	0	0
O=C(O)[C@@H]1C[C@@H](O)CN1 [L-hydroxyproline]	80.5	92.4	100	96.1	95.8	95	94.4	93.5	96.9	106	101	112	99.7	108	90.8	95.9	102	100	95.2	102	104	114	99.5	105	94.4	> 10	> 10	> 10	> 10	> 10	0	0	0	0	0
Cc1sc(C)c(C(=O)NC2(c3ccc(C(=O)O)cc3)CC2)c1Cc1ccc(C(F)(F)F)cc1 [MK-2894]	94.8	95.7	89	101	101	99.3	107	103	101	109	104	99.9	111	96.4	96.4	93.1	99.8	100	102	106	93.7	92.9	96.5	93.6	85.9	> 10	> 10	> 10	> 10	> 10	0	0	0	0	0
COc1ccccc1C(=O)Nc1cccc(NC(=O)c2cccc(C)c2)c1 [ML365]	97.8	101	97.4	92.8	86	99	98.4	96.2	98.4	94.3	113	98.7	91.6	116	85.8	107	102	103	98.5	99	102	100	101	98.2	95	> 10	> 10	> 10	> 10	> 10	0.3	0	0	0	0
Cc1cc(C)c(NC(=O)C2CC3CCC2C3)c(C)c1 (stereo not given) [ML-213]	107	82.4	93.7	98.4	99.8	105	96.5	92	106	95.3	103	104	99.9	104	101	105	100	99.8	103	104	93.3	98.4	96.3	90.3	100	> 10	> 10	> 10	> 10	> 10	0	0	0	0	0
S=C=Nc1cccc(NC(=S)NCCCCNC(=S)Nc2cccc(N=C=S)c2)c1 [MRS-2578]	100	91.2	99.7	98.4	101	90.7	93.6	109	90.2	107	107	104	110	97.7	103	95.9	95.8	99.5	97.2	104	98.3	98.8	94.2	99.5	98.7	> 10	> 10	> 10	> 10	> 10	0	0	0	0	0
COC(=O)CN1CN(c2ccccc2)C2(CCN(Cc3cccc4ccccc34)CC2)C1=O [NNC-63-0532]	102	96.3	95	99.7	96.9	98.2	106	97.7	114	102	93.5	104	99.6	95	99.8	100	96.1	94.9	102	98.7	90.2	97.3	96.5	90.7	103	> 10	> 10	> 10	> 10	> 10	0	0	0	0	0
C[C@]12CC[C@H]3[C@@H](CCC4=CC(=O)CC[C@@H]43)[C@@H]1CC[C@@H]2O [Nandrolone]	92	91.3	98.7	103	95	95.7	102	102	104	99.4	102	101	96.9	108	113	98.7	96.1	98.5	96.5	96.7	91.6	104	89.9	96.2	103	> 10	> 10	> 10	> 10	> 10	0	0	0	0	0
CO/N=C1/C[C@@H](C(=O)NC[C@@H](O)c2ccccc2)N(C(=O)c2ccc(-c3ccccc3C)cc2)C1 [OT-R-antagonist-1]	89	99	99.1	86.6	98.3	96.2	106	106	110	99.4	102	97.6	99.4	97.7	98.5	96.9	99.8	94.5	99.1	100	97	90.8	95.2	84.8	103	> 10	> 10	> 10	> 10	> 10	0	0	0	0	0
C[C@]12COC(=O)C[C@@H]1CC[C@@H]1[C@@H]2CC[C@@]2(C)[C@H]1CC[C@]2(C)O [Oxandrolone]	106	101	100	99.4	106	98.3	98.4	96.8	103	110	102	94.9	104	99.4	90.8	101	99.4	99.7	102	104	104	98	98.4	104	98.2	> 10	> 10	> 10	> 10	> 10	0	0	0	0	0
O=C(/C=C/N1C[C@H]2C[C@@H]1CN2c1ccccn1)c1ccccc1O [PFI-3]	92	94.5	88.5	98.1	106	101	115	98.1	96.1	107	97.3	99.8	110	99.5	96.2	92.6	99.7	96.1	99.7	101	99.3	90.4	99.6	93.8	104	> 10	> 10	> 10	> 10	> 10	0	0	0	0	0
Cc1ccc([N+](=O)[O-])cc1S(=O)(=O)N(C)/N=C/c1cnc2ccc(Br)cn12 [PIK-75]	98.8	90.3	57.9	28.4	33.3	102	103	52.6	35.6	46.7	97.9	84.7	26	11.1	10.6	98.6	96.6	53.8	4.2	0.8	105	101	69.7	0.7	5.3	0.0669	0.0668	0.0317	0.109	0.139	18.3	17.4	26.8	23	22.3
